The text below walks through data of patent US20020132853A1, “Capsaicin receptor ligands” (priority 2000, published 2002).

The target of one data set is T1, human capsaicin receptor (Homo sapiens, UniProt Q8NER1).
T1 construct: expression consrtuct encoding the full length human capsaicin receptor; expressed in transfected cells
Put plainly: Capsaicin receptor binding assay ([3H]RTX competition). An excerpt: Capsaicin Receptor Binding Assay
The following assay is a standard assay of capsaicin receptor binding that may be used to determine the binding affinity of compounds for the capsaicin (VR1) receptor.
Materials. [^3H]Resiniferatoxin (RTX; 37 Ci/mmol) was synthesized by and obtained from the Chemical Synthesis and Analysis Laboratory, National Cancer Institute-Frederick Cancer Research and Development Center, Frederick, MD. [^3H] […] Nonradioactive RTX may be purchased from Alexis Corp. (San Diego, Calif.) and capsazepine from RBI (Natick, Mass).
Cell Culture. […] These transfected cells are selected for two weeks in media containing G418 (400 ug/ml) and then maintained as a pool of stably transfected cells.
pUHG102 VR1 expression plasmids are transfected into Chinese Hamster Ovary (CHO) cells containing the pTet Off Regulator plasmid (Clontech). In these cells, expression of the pUHG plasmid is repressed in the presence of tetracycline but is induced upon removal of the antibiotic. Stable clones are isolated in culture medium containing puromycin (10 ug/ml) and maintained in medium supplemented with tetracycline (1 ug/ml) Cells utilized for assays are grown in culture medium without antibiotic for 48-72 hours prior to use. For radioligand binding experiments, cells are seeded in T175 cell culture flasks in media without antibiotics and grown to approximately 90% confluency. The flasks are then washed with PBS and harvested in PBS containing 5 mM EDTA. The cells are pelleted by gentle centrifugation and stored at −80° C. until assayed.
Previously frozen cells are disrupted with the aid of a tissue homogenizer in ice-cold HEPES homogenization buffer (5mM KCl 5, 5.8mM NaCl, 0.75mM CaCl2, 2mM MgCl2, 320 mM sucrose, and 10 mM HEPES pH 7.4). Tissue homogenates are first centrifuged for 10 min at 1000×g (4° C.) to remove the nuclear fraction and debris and then the supernatant from the first centrifugation is further centrifuged for 30 min at 35,000×g (4° C.) to obtain a partially purified membrane fraction. Membranes are resuspended in the HEPES homogenization buffer prior to being assayed. An aliquot of this membrane homogenate is used to determine protein concentration via the Bradford method (BIO-RAD Protein Assay Ki t, #500-0001, BIO-RAD, Hercules, Calif.).
Binding assay mixtures were set up on ice and contained [^3H]RTX (specific activity 2200 mCi/ml), 2 ul non-radioactive ligands test compound, 0.25 mg/ml bovine serum albumin (Cohn fraction V), and 5×10^4−1×10^5 VR1-transfected cells. The final volume was adjusted to 500 ul (competition binding assays) or 1,000 ul (saturation binding assays) with the ice-cold HEPES homogenization buffer solution (pH 7.4) described above. Non-specific binding was defined as that occurring in the presence of 1 uM non-radioactive RTX. For saturation binding, [^3H]RTX was added in the concentration range of 7 - 1,000 pM, using 1 to 2 dilutions. Typically 11 concentration points are collected per saturation binding curve.
Competition binding assays were performed in the presence of 60 pM [^3H]RTX and various concentrations of competing ligands. The binding reactions are initiated by transferring the assay mixtures into a 37° C. water bath and are terminated following a 60 min incubation period by cooling the tubes on ice. Membrane-bound RTX is separated from free, as well as any alpha1-acid glycoprotein-bound RTX, by filtration onto WALLAC glass fiber filters (PERKIN-ELMER, Gaithersburg, Md.) which are pre-soaked with 1.0% PEI (polyethyleneimine) for 2 hours prior to use.

A short description of data set [1]: Sedative effect noted in CFA arthritis model protocol. In kind it is in vivo, rats. Particulars: oral dose of 5mg/kg. The procedure: Male SD rats are injected with […] of CFA (0.1 mg heat killed and dried M. tuberculosis/ml) in the hind paw ([…] on the plantar surface of the paw) essentially as described by Bertorelli R, Corradini L, Rafiq K, Tupper J, Calo G, Ongini E., Br J Pharmacol. 1999 128(6):1252-8 and by Stein C, Millan M J, Herz A. Pharmacol Biochem Behav. 1988 31(2):455-51.
On day 7, animals are treated orally with a compound of the invention, morphine or vehicle (2% vitamin E-TPGS) 1 hour prior to testing.

Like-named read-outs stand apart in the source and are kept apart here. Bounds are passed on as bounds.

T1 sequence (Q8NER1 whole entry): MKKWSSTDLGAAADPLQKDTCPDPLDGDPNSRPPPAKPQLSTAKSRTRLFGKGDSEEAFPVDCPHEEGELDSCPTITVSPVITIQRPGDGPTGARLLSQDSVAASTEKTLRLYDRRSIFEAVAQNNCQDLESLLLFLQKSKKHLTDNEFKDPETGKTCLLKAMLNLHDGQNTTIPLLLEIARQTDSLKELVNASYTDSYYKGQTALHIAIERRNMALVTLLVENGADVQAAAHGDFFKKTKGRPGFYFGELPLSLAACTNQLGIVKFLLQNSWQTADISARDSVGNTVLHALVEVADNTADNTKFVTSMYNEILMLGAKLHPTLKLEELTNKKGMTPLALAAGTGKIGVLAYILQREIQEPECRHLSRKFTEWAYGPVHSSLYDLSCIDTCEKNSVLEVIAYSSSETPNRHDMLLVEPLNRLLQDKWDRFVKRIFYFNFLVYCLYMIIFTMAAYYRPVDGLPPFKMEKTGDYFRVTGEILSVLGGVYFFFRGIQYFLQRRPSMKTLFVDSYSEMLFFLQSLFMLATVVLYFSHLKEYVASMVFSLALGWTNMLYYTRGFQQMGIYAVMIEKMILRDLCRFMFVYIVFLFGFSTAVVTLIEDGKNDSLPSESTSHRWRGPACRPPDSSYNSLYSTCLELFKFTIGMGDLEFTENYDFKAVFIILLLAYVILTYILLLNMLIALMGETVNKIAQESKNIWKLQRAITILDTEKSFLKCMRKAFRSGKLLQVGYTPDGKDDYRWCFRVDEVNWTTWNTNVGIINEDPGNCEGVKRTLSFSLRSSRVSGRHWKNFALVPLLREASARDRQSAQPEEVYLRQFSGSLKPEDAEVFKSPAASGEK

“4-(3-Chloro-2-pyridinyl)-N-[4-(isopropyl)phenyl]-1-piperazinecarboxamide [Compound 14]”: the Ki on human capsaicin receptor (Table II, read-out: Activity) was below 4 µM. `CC(C)c1ccc(NC(=S)N2CCN(c3ncccc3Cl)C[C@H]2C)cc1` (stereo in doubt) [Example 7, 4-(3-Chloro-pyridin-2-yl)-2-methyl-piperazine-1-carbothioic acid (4-isopropyl-phenyl)-amide] yielded a melting point of 49 to 51 °C. As to `COc1cc(CNC(=O)N2CCN(c3ncccc3C(F)(F)F)CC2)ccc1O` [Compound 1, 4-(3-Trifluoromethyl-2-pyridinyl)-N-(3-methoxy-4-hydroxyphenylmethyl)-1-piperazinecarboxamide], the Ki on human capsaicin receptor (read-out: Capsaicin rececptor Ki) was 0.366 µM. Regarding `CCCCc1ccc(NC(=O)N2CCN(c3ncccc3[N+](=O)[O-])CC2)cc1` [Compound 2, 4-(3-Nitro-2-pyridinyl)-N-[4-(n-butyl)phenyl]-1-piperazinecarboxamide], the Ki at human capsaicin receptor (Table II, read-out: Activity) was below 4 µM. Take `CCCCc1ccc(NC(=O)N2CCN(c3ncccc3C(F)(F)F)CC2)cc1` [Compound 3, 4-(3-Trifluoromethyl-2-pyridinyl)-N-[4-(n-butyl)phenyl]-1-piperazinecarboxamide]: the Ki at human capsaicin receptor (Table II, read-out: Activity) is below 4 µM. Consider `Cc1cccnc1N1CCN(C(=O)Nc2ccc(C(C)C)cc2)CC1` [Compound 4, 4-(3-Methyl-2-pyridinyl)-N-[4-(isopropyl)phenyl]-1-Piperazinecarboxamide], for which the Ki on human capsaicin receptor (Table II, read-out: Activity) is below 4 µM. For `CC(C)c1ccc(NC(=O)N2CCN(c3ncc(C(F)(F)F)cc3Cl)CC2)cc1` [Compound 7, 4-(3-Chloro-5-trifluoromethyl-2-pyridinyl)-N-[4-(isopropyl)phenyl]-1-piperazinecarboxamide], the Ki on human capsaicin receptor (Table II, read-out: Activity) is below 4 µM. Still for that read-out and setting: the result for `CC(C)c1ccc(NC(=O)N2CCN(c3ncccc3Cl)CC2)cc1` [Compound 8, 4-(3-Chloro-2-pyridinyl)-N-[4-(isopropyl)phenyl]-1-piperazinecarboxamide] reads below 4 µM; that for `CC(C)c1ccc(NC(=O)N2CCN(c3ncc(Cl)cc3Cl)CC2)cc1` [Compound 9, 4-(3,5-Dichloro-2-pyridinyl)-N-[4-(isopropyl)phenyl]-1-piperazinecarboxamide], below 4 µM; that for `Cc1cccnc1C(=O)C=Cc1ccc(C(F)(F)F)cc1` [Compound 10, 1-(3-Methyl-2-pyridinyl)-3-(4-trifluoromethylphenyl)-prop-2-en-1-one], below 4 µM.

With `CC(C)c1ccc(C=CC(=O)c2ncccc2C(F)(F)F)cc1` [Compound 11, 1-(3-Trifluoromethyl-2-pyridinyl)-3-(4-isopropylphenyl)-prop-2-en-1-one], on human capsaicin receptor (Table II, read-out: Activity), the Ki was below 4 µM.

In turn, `CC(C)c1ccc(NC(=O)N2CCN(c3ncccc3C#N)CC2)cc1` [Compound 12, 4-(3-Cyano-2-pyridinyl)-N-[4-(isopropyl)phenyl]-1-piperazinecarboxamide] registered a Ki at human capsaicin receptor below 4 µM. Turning to `CN1CC[C@]23c4c5ccc(O)c4O[C@H]2[C@@H](O)C=C[C@H]3[C@H]1C5` [morphine], in data set [1], the sedative effects entry is reported as “has sedative effects”.
